# Results as given in patent US9968620B2, “Methods of treating lymphoma using thienotriazolodiazepine compounds” (ONCOETHIX GmbH, priority 2014, dated 2018).
# How the values were obtained:
# [1] = Oral exposure in the rat (pharmacokinetics); type: in vivo, Sprague Dawley rats; conditions: rats, 1 mg/kg intravenous
# ABC cell lines = assay: Immunoblotting and immunohistochemistry; type: cell-based
# [2] = test system: NFKB target genes (IRF4, TNF AIP3 and BIRC3); assay: PCR of NFKB target genes; type: cell-based
# lymphoma cell lines = assay: Cytotoxic activity (apoptosis) by Annexin V staining; type: cell-based; conditions: 500 nM, 72 h; 14%
# [3] = test system: SU-DHL-6, SU-DHL-2 cell lines; assay: Gene expression profiling (GEP), Illumina HumanHT-12; type: cell-based, human; conditions: 500 nM, 1, 2, 4, 8 or 12 hours
# Method: (§1) Cell lines: 22 diffuse large B-cell lymphoma (DLBCL), 4 mantle cell lymphomas, 3 multiple myelomas, 3 splenic marginal zone lymphoma and 1 prolymphocytic leukemia. Antiproliferative activity of compound (1-1) (OncoEthix SA, Switzerland) was assessed by MTT and its cytotoxic activity by Annexin V staining and gene expression profiling (GEP) with Illumina HumanHT-12 Expression BeadChips. Data mining was done with LIMMA, GSEA, Metacore. Synergy was assessed in cells (2-5 cell lines) exposed for 72 h to increasing doses of compound (1-1) alone or in combination with increasing doses of other agents. MTT assays were performed and Chou-Talalay combination index (CI) calculated.
# We performed GEP on 2 cell lines (SU-DHL-6, SU-DHL-2), treated with DMSO or compound (1-1) (500 nM) for 1, 2, 4, 8 or 12 hours.
# [4] = test system: DOHH2 and SU-DHL-2 DLBCL cell lines; assay: miRNA profiling, Agilent Human microRNA microarray; type: cell-based; conditions: 500 nM vs DMSO, 4 h or 8 h
# Method: (§2) Total RNA was extracted from 2 DLBCL cell lines, the germinal center B-cell (GCB) type DOHH2 and from the activated B-cell-like (ABC)-type SU-DHL-2, following treatment with compound (1-1) (500 nM) or DMSO for 4 h or 8 h. RNA samples were labeled with cyanine-3 dye using the Agilent microRNA Complete Labeling System & Hyb Kit and hybridized to the Agilent Human microRNA microarray v.3. Raw expression values were obtained with Agilent Feature Extraction Software, log-transformed and normalized by the quantile method. Data were filtered to exclude relatively invariant features and those below the detection threshold. Limma (Linear Models for Microarray data analysis) was employed using R/Bioconductor and the filtered dataset. Baseline miRNA profiling was obtained in 22 DLBCL cell lines with the Nanostring nCounter Human v2 miRNA Expression Assay kit. Baseline gene expression profiling (GEP) was obtained in the 22 cell lines with the Illumina HumanHT-12 v4 Expression BeadChip. Selected miRNA changes were validated by real-time PCR. The miRWalk database (Dweep et al, 2011) was used to retrieve the validated miRNA targets. Gene Set Enrichment Analysis (GSEA) software was used to assess enrichment of miRNA targets in the GEP datasets.
# Total RNA was extracted from 2 diffuse large B-Cell lymphoma (DLBCL) cell lines, the germinal center B-cell (GCB) type DOHH2 and activated B-cell-like (ABC)-type SU-DHL-2, following treatment with 500 nM compound (1-1) or DMSO for 4 h or 8 h. RNA samples were labeled with cyanine-3 dye using the Agilent microRNA Complete Labeling System & Hyb Kit and hybridized to the Agilent Human microRNA microarray v.3. Raw expression values were obtained with Agilent Feature Extraction Software, log-transformed and normalized by the quantile method. Data were filtered to exclude relatively invariant features and those below the detection threshold. Limma was employed using R/Bioconductor and the filtered dataset. […]
# IL10 and IL4 production = assay: IL10 and IL4 production; type: cell-based; conditions: after 24 hours treatment
# [5] = Antiproliferative activity by MTT; type: cell-based; conditions: B-cell
# Method: as §1, with “[…].” for “Antiproliferative activity of compound (1-1) (OncoEthix SA, Switzerland) was assessed by MTT and its cytotoxic activity by Annexin V staining and gene expression profiling (GEP) with Illumina HumanHT-12 Expression BeadChips.”
# [6] = test system: 22 diffuse large B-cell lymphoma (DLBCL), 4 mantle cell lymphomas, 3 multiple myelomas, 3 splenic marginal zone lymphoma and 1 prolymphocytic leukemia cell …; assay: Antiproliferative activity by MTT; type: cell-based; conditions: 500 nM, 72 h; 88%
# Method: as §1, with “[…].” for “Antiproliferative activity of compound (1-1) (OncoEthix SA, Switzerland) was assessed by MTT and its cytotoxic activity by Annexin V staining and gene expression profiling (GEP) with Illumina HumanHT-12 Expression BeadChips.”
# DLBCL cell lines = assay: GEP variations of validated miRNA target genes; type: cell-based, human
# Method: as §2
# Total RNA was extracted from 2 diffuse large B-Cell lymphoma (DLBCL) cell lines, the germinal center B-cell (GCB) type DOHH2 and activated B-cell-like (ABC)-type SU-DHL-2, following treatment with 500 nM compound (1-1) or DMSO for 4 h or 8 h. RNA samples were labeled with cyanine-3 dye using the Agilent microRNA Complete Labeling System & Hyb Kit and hybridized to the Agilent Human microRNA microarray v.3. Raw expression values were obtained with Agilent Feature Extraction Software, log-transformed and normalized by the quantile method. Data were filtered to exclude relatively invariant features and those below the detection threshold. Limma was employed using R/Bioconductor and the filtered dataset. Baseline microRNA (abbreviated miRNA) profiling was obtained from 30 B-cell lymphoma cell lines, including 22 DLBCL with the Nanostring nCounter Human v2 miRNA Expression Assay kit. Baseline gene expression profiling (GEP) was obtained with the Illumina HumanHT-12 v4 Expression BeadChip. Selected miRNA changes were validated by real-time PCR. Validated miRNA targets were retrieved using the miRWalk database (Dweep et al, 2011). […] Changes in these miRNAs matched GEP variations of validated target genes (e.g., miR-92a-1-5p: CDKN1A, log 2 FC, 0.81, CDKN2A, log 2 FC, 0.81; miR-96-5p: MYC, log 2 FC, −0.57, MYD88, log 2 FC, −0.35).
compound,measurement,setting,value
"Cc1sc2c(c1C)C(c1ccc(Cl)cc1)=N[C@@H](CC(=O)Nc1ccc(O)cc1)c1nnc(C)n1-2 [Compound (1-1), 2-[(6S)-4-(4-chlorophenyl)-2,3,9-trimethyl-6H-thienol[3,2-f]-[1,2,4]triazolo[4,3-a][1,4]diazepin-6-yl]-N-(4-hydroxyphenyl)acetamide dihydrate]",CI/F,[1],13.4 mL/min/kg
same,transcriptionally active pSTAT3,ABC cell lines; 2 ABC cell lines,reduction
same,nuclear localization of p50 (NFKB 1),ABC cell lines; ABC cell lines,reduction
same,"expression of NFKB target genes (IRF4, TNF AIP3 and BIRC3)",[2],downregulated
same,cell lines showing apoptosis,lymphoma cell lines,3/22
same,expression of MYC (GEP),[3],most frequently downregulated gene
same,"expression of MYD88, IRAK1, TLR6, IL6, STAT3, and TNFRSF17 (NFKB, TLR and JAK/STAT pathways)",[3],downregulated
same,expression of histone genes (GEP),[3],upregulated
same,"miR-21-3p expression, log 2 FC",[4],−0.37 log 2 FC
same,"miR-92a-1-5p expression, log 2 FC",[4],−2.01 log 2 FC
same,"miR-96-5p expression, log 2 FC",[4],0.39 log 2 FC
same,IL10 and IL4 production,IL10 and IL4 production,reduced
same,IC50,[5]; cell lines with lower sensitivity (8 of 22 DLBCL cell lines),> 500 nM
same,IC50,[5]; sensitive cell lines (14 of 22 DLBCL cell lines),< 500 nM
same,cell lines showing cytostatic activity,[6],29/33
same,"CDKN1A expression (miR-92a-1-5p target), log 2 FC",DLBCL cell lines,0.81 log 2 FC
same,"CDKN2A expression (miR-92a-1-5p target), log 2 FC",DLBCL cell lines,0.81 log 2 FC
same,"MYC expression (miR-96-5p target), log 2 FC",DLBCL cell lines,−0.57 log 2 FC
same,"MYD88 expression (miR-96-5p target), log 2 FC",DLBCL cell lines,−0.35 log 2 FC
